{"source": "patent EP0227593A1", "about": "“Use of chelating agents” (THE HOSPITAL FOR SICK CHILDREN, priority 1985, dated 1987)", "key": {"[1]": {"tested_on": "patient's PB blast cells", "experiment": "ALL blast colony assay", "format": "cell-based", "conditions": "Homo sapiens", "method": "ALL Blast Colony Assay: The assay we used is a modification of previously described methods. T-cell depletion: Post-Ficoll mononuclear BM cells were incubated with neuraminidase sensitized sheep erthrocytes (SRBC) at 4°C for 2 hours, followed by gradient centrifugation. This procedure was repeated twice. Cells at the interface contained less than 0.5 % T-cells as assessed by AET sensitized SRBC rosette formation and using anti-Leu-4 and anti-Leu-5 monoclonal anti-T-cell antibodies (Becton Dickinson, CA). T-lymphocytes were obtained by recovery of rosetted cells from the pellet following lysis with Tris-buffered ammonium chloride (Sigma, St. Louis, MO). Feeder Cells: Post-Ficoll normal donors' PB cells were depleted of adherent cells by incubation on plastic Petri dishes with 10 % fetal calf serum for 90 min. at 37°C. […]\nCell Culture Procedure: 2 x 10⁵ T-depleted cells were incubated with 40 % RPMI-methylcellulose, 20 % PHA-LCM, 10 % FCS, irradiated feeder cells (10⁵/dish), 16.6 % RPMI in 35 mm Petri dishes. […] Colonies were counted at day 4. […] For control, 2 x 10⁵ irradiated feeder cells were cultured in the same assay system in each experiment to exclude their potential for colony formation Immunocytochemical Method: The cell surface antigens of air dried smears were detected using monoclonal antibodies and intestinal alkaline phosphatase, as previously described. […]"}, "[2]": {"tested_on": "blasts", "experiment": "Marrow aspirate and cytochemistry at conclusion of the 20-day treatment protocol", "format": "in vivo, human", "excerpt": "In contrast to the marrow aspirate prior to DFO therapy, 60 % of the blasts were positive for non-specific esterase and staining could be inhibited by fluoride."}, "[3]": {"tested_on": "HL-60 cells", "experiment": "Colony growth of HL-60 cells", "format": "cell-based, human", "method": "HL-60 cells, a promyeloctic leukemia cell line originally developed by Dr. R. Gallo, NIH, were used. Cells were grown in RPMI supplemented with 10 % heat inactivated fetal calf serum (FCS, Flow Laboratories, Rockville, MO) and 2 mM glutamine (Gibco, Berkely, CA), at densities ranging from 1-2 x 10⁵/ml to 1-10⁶/ml, in a 5 % CO₂ humidified atmosphere at 37°C.\nHL-60 cells (10⁴/ml) were plated in 0.8 % methycellulose in RPMI-1640 medium supplemented with 20 % heat inactivated (56°C, 30 min) fetal calf serum at a final volume of 1 ml/culture plate. Cultures were set up in duplicates and maintained at 37°C in a 5 % CO₂ humidified atmosphere. Deferoxamine was dissolved in iron-free RPMI culture medium and added at the initiation of culture at different concentrations (1-10 µM). Colonies were counted at 7 days using an inverted microscope. A cluster of more than 20 cells was defined as a colony. Individual colonies were plucked from culture plates spread on glass slides and morphologically assessed after preparation with Wright's stain and non-specific esterase in the presence of fluoride (29). The self renewal capacity of cells was assessed according to McCulloch et al (30). RPMI-1640 medium was added to culture dishes for 2 hrs; the contents of each dish were then transferred into a tube, centrifuged and washed with medium three times. Cells from each dish were counted separately, and viability was assessed by trypan blue dye exclusion. Cells (1x10⁴/ml) from each dish were recultured in 0.8 % methylcellulose as before."}, "[4]": {"tested_on": "Lewis lung carcinoma", "experiment": "Tumour growth and metastases of Lewis lung carcinoma in mice", "format": "in vivo", "conditions": "11 injections", "method": "Female C57B16 mice (10 mice/group, 18-22 g body weight) were i.m. injected into the left hind leg with 0.1 ml of a tumour cell suspension of Lewis lung carcinoma (day 0).\nNine groups of animals were investigated. The test compounds were s.c. administered as follows: physiological saline: once daily for eleven days starting from day 0 up to day 10. DFO: 0.5 ml in distilled water in a dose of 10 and 30 mg/kg once daily for eleven days, on day 0 up to day 10 after tumour inocculation. 10-EDAM: 0.5 ml in distilled water in a dose of 3 and 6 mg/kg, once daily on days 1, 3, 5, 7 and 9 after tumour inocculation.\nBoth hind legs were removed from the body, weighed, and the difference between the tumour bearing and the tumour free leg was taken as the tumour weight of one idividual mouse.\nLungs were filled up with Pelikan-ink via the trachea, fixed in Fekete-solution and metastases (white spot on black back-ground) on the lung surface were counted microscopically."}}}
{"smiles": "CC(=O)N(O)CCCCCNC(=O)CCC(=O)N(O)CCCCCNC(=O)CCC(=O)N(O)CCCCCN", "note": "[DFO, desferioxamine methanesulfonate]", "values": [{"measurement": "inhibition at 2.15 µM", "setting": "[1]; 2.15 µM DFO, read-out: reduction in blast colonies", "value": 70, "unit": "%"}, {"measurement": "minimal effective concentration", "setting": "[1]; patient's PB blast cells, read-out: DFO concentrations with significant decline in blast colonies", "value": "> 1.25", "unit": "µM"}, {"measurement": "blasts in marrow aspirate", "setting": "[2]; conclusion of the 20-day treatment protocol (DFO and Ara-C)", "value": 60, "unit": "%"}, {"measurement": "blasts positive for non-specific esterase", "setting": "[2]; marrow aspirate, conclusion of the 20-day treatment protocol", "value": 60, "unit": "%"}, {"measurement": "inhibition of HL-60 colony proliferation", "setting": "[3]; 10 µm DFO", "value": 100, "unit": "%"}, {"measurement": "inhibition at 3.5 µM", "setting": "[3]; Homo sapiens, HL-60, 3.5 µM DFO, read-out: inhibition of HL-60 colony proliferation", "value": 50, "unit": "%"}, {"measurement": "Number of lung metastases % of control", "setting": "[4]; group 2: DFO 10 mg/kg s.c.", "value": 103, "unit": "%"}, {"measurement": "Number of lung metastases x̄ ± SD", "setting": "[4]; group 2: DFO 10 mg/kg s.c.", "value": "69 ± 26"}, {"measurement": "Tumour weight % of control", "setting": "[4]; group 2: DFO 10 mg/kg s.c.", "value": 100, "unit": "%"}, {"measurement": "Tumour weight x̄ ± SD", "setting": "[4]; group 2: DFO 10 mg/kg s.c.", "value": "7.56 ± 0.32", "unit": "g"}, {"measurement": "Number of lung metastases % of control", "setting": "[4]; group 3: DFO 30 mg/kg s.c.", "value": 78, "unit": "%"}, {"measurement": "Number of lung metastases x̄ ± SD", "setting": "[4]; group 3: DFO 30 mg/kg s.c.", "value": "52 ± 16"}, {"measurement": "Tumour weight % of control", "setting": "[4]; group 3: DFO 30 mg/kg s.c.", "value": 106, "unit": "%"}, {"measurement": "Tumour weight x̄ ± SD", "setting": "[4]; group 3: DFO 30 mg/kg s.c.", "value": "7.99 ± 0.42", "unit": "g"}]}
